According to publication PMC6199309, “A therapeutic approach to pantothenate kinase associated neurodegeneration” (Nature Communications, 2018):

Tests used:
ULK2 = target: T1, ULK2 (Homo sapiens, UniProt Q8IYT8); test: KINOMEscan; assay type: binding; conditions: read-out: %Ctrl @ 10000nM
T1 construct: DNA label for qPCR (T7 phage fusion or DNA tag); purchased DiscoverX scanMAX; host or cells: E. coli BL21-derived (T7 phage) or HEK-293

[1] = target: T2, RPS6KA4(Kin.Dom.2-C-terminal) (Homo sapiens, UniProt O75676); test: KINOMEscan; assay type: binding; conditions: read-out: %Ctrl @ 10000nM
T2 construct: RPS6KA4(Kin.Dom.2-C-terminal); purchased DiscoverX KINOMEscan
T2 sequence (O75676 372-772 limits assumed): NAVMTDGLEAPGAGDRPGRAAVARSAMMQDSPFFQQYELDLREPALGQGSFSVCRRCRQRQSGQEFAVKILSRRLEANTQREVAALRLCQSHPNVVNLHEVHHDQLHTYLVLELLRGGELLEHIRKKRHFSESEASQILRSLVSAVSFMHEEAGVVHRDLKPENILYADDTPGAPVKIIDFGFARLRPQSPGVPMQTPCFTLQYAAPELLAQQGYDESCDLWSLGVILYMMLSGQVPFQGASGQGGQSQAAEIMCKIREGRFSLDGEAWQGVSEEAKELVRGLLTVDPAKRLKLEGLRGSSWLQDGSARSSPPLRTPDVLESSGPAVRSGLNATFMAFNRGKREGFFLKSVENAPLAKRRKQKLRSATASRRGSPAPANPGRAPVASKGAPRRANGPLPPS

Protein binding = conditions: human
MEK4 = target: T3, MEK4 (Homo sapiens, UniProt P45985); test: KINOMEscan; assay type: binding; conditions: read-out: %Ctrl @ 10000nM
T3 construct: purchased DiscoverX KINOMEscan

MST1R = target: T4, MST1R (Homo sapiens, UniProt Q04912); test: KINOMEscan; assay type: binding; conditions: read-out: %Ctrl @ 10000nM
T4 construct: purchased DiscoverX KINOMEscan

ERK1 = target: T5, ERK1 (Homo sapiens, UniProt P27361); test: KINOMEscan; assay type: binding; conditions: read-out: %Ctrl @ 10000nM
T5 construct: purchased DiscoverX KINOMEscan

CAMK2G = target: T6, CAMK2G (Homo sapiens, UniProt Q13555); test: KINOMEscan; assay type: binding; conditions: read-out: %Ctrl @ 10000nM
T6 construct: purchased DiscoverX KINOMEscan

BIKE = target: T7, BIKE (Homo sapiens, UniProt Q9NSY1); test: KINOMEscan; assay type: binding; conditions: read-out: %Ctrl @ 10000nM
T7 construct: purchased DiscoverX KINOMEscan
T7 sequence (Q9NSY1 whole entry): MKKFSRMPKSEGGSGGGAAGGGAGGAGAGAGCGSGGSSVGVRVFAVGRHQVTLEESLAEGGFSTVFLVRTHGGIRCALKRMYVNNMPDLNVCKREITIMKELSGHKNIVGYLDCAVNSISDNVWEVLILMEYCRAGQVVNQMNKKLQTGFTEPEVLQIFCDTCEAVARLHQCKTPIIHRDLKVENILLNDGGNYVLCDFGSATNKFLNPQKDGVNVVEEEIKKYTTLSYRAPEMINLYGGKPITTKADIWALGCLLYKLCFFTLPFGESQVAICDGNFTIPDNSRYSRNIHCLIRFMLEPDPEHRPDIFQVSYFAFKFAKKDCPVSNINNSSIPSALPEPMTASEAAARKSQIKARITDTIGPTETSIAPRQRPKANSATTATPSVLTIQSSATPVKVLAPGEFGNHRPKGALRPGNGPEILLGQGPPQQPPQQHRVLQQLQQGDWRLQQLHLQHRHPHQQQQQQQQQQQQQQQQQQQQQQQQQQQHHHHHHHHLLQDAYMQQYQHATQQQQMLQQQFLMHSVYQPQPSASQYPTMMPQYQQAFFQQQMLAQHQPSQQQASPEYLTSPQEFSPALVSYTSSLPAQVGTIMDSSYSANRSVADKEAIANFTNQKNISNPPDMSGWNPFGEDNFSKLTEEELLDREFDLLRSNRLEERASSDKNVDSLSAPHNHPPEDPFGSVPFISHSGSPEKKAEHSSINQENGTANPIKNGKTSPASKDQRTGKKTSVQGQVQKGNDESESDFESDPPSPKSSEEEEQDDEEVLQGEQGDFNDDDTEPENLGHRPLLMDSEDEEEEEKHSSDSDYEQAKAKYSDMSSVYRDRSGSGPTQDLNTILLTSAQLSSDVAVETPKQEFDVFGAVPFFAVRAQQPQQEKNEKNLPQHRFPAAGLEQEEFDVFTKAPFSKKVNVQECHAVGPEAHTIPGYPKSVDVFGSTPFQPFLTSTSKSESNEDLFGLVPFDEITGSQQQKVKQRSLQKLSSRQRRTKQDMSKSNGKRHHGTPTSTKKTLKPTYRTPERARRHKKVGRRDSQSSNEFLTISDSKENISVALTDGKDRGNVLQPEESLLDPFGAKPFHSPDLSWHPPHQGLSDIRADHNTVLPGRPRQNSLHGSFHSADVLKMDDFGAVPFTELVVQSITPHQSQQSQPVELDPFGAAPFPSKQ

KIT(A829P) = target: T8, KIT(A829P) (Homo sapiens, UniProt P10721, A829P); test: KINOMEscan; assay type: binding; conditions: read-out: %Ctrl @ 10000nM
T8 construct: purchased DiscoverX KINOMEscan

HIPK2 = target: T9, HIPK2 (Homo sapiens, UniProt Q9H2X6); test: KINOMEscan; assay type: binding; conditions: read-out: %Ctrl @ 10000nM
T9 construct: purchased DiscoverX KINOMEscan

CIT = target: T10, CIT (Homo sapiens, UniProt O14578); test: KINOMEscan; assay type: binding; conditions: read-out: %Ctrl @ 10000nM
T10 construct: purchased DiscoverX KINOMEscan

NEK2 = target: T11, NEK2 (Homo sapiens, UniProt P51955); test: KINOMEscan; assay type: binding; conditions: read-out: %Ctrl @ 10000nM
T11 construct: purchased DiscoverX KINOMEscan

PIK3CA(H1047L) = target: T12, PIK3CA(H1047L) (Homo sapiens, UniProt P42336, H1047L); test: KINOMEscan; assay type: binding; conditions: read-out: %Ctrl @ 10000nM
T12 construct: purchased DiscoverX KINOMEscan

[2] = PZ-2891 levels in plasma, liver and brain tissue; assay type: in vivo, mouse; conditions: 225 ppm PZ-2891 in diet, 4 weeks
Procedure: Plasma (20 μl) was added to 100 μl acetonitrile containing 0.6 μM warfarin to a final concentration of 0.5 μM. The samples were incubated on ice for 30 min. Samples were spun at 3500×g for 10 min to pellet debris, and the supernatant was transferred to a glass vial. […] Tissue was homogenized in 2 ml of 80% methanol containing 0.1 μM warfarin, and incubated at −80 °C for 4 h. Samples were spun at 3500×g for 10 min to pellet debris, supernatant was transferred to a glass tube and dried down using a Savant SPD1010 Speed-Vac (Thermo Scientific) overnight. Samples were resuspended in 400 μl of 80% acetonitrile to a final concentration of 0.5 μM and transferred to a glass vial.
Samples (5 μl) were injected onto an XSelect® HSS C18, 2.5 μm, 3.0 × 150 mm column (Waters) using a flow rate of 0.25 ml/min. Solvent A was 0.1% formic acid in water, and Solvent B was acetonitrile + 0.1% formic acid. The HPLC program was the following: starting solvent mixture of 50% B, 0–0.5 min isocratic with 50% B; 0.5–1.5 min linear gradient to 95% B; 1.5–20 min isocratic with 95% B; 20–21 min linear gradient to 50% B; 21–25 min isocratic with 50% B. The QTrap 4500 was operated in the positive mode, and the ion source parameters were: ion spray voltage, 5500 V; curtain gas, 30 psi; temperature, 450 °C; collision gas, medium; ion source gas 1, 30 psi; and ion source gas 2, 40 psi. […]
Supplementary Fig. 11. […]. […]

MYLK2 = target: T13, MYLK2 (Homo sapiens, UniProt Q9H1R3); test: KINOMEscan; assay type: binding; conditions: read-out: %Ctrl @ 10000nM
T13 construct: purchased DiscoverX KINOMEscan

PAMPA-BBB = assay type: in vitro ADME; conditions: BBB = Blood Brain Barrier, read-out: PAMPA-BBB, Avg Pe
VPS34 = target: T14, VPS34 (Homo sapiens, UniProt Q8NEB9); test: KINOMEscan; assay type: binding; conditions: read-out: %Ctrl @ 10000nM
T14 construct: DNA label for qPCR (T7 phage fusion or DNA tag); purchased DiscoverX scanMAX; host or cells: E. coli BL21-derived (T7 phage) or HEK-293
T14 sequence (Q8NEB9 whole entry, the tested form may be a part): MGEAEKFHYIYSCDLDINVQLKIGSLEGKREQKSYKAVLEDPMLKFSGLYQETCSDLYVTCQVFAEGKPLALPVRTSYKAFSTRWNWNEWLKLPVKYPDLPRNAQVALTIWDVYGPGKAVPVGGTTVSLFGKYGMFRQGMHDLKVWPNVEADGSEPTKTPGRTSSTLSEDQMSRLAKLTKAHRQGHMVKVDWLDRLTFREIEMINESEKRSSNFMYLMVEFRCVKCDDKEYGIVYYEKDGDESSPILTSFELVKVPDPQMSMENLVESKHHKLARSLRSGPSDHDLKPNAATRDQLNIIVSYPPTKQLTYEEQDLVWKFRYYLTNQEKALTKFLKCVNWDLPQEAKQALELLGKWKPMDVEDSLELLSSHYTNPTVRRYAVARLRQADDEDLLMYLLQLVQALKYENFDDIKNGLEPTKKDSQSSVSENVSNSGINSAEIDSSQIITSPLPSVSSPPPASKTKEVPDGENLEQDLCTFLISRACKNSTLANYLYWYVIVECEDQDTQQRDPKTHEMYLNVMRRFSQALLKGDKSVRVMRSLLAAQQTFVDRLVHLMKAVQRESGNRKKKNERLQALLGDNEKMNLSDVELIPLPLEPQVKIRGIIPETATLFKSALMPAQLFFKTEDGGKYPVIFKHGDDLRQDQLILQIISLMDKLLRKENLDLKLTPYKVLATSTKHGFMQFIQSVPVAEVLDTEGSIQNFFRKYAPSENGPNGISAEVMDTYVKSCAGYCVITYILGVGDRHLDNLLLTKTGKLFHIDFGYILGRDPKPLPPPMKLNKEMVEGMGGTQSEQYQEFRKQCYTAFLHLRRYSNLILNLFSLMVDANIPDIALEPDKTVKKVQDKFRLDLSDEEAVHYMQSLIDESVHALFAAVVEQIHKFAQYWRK

TNK2 = target: T15, TNK2 (Homo sapiens, UniProt Q07912); test: KINOMEscan; assay type: binding; conditions: read-out: %Ctrl @ 10000nM
T15 construct: purchased DiscoverX KINOMEscan

DAPK1 = target: T16, DAPK1 (Homo sapiens, UniProt P53355); test: KINOMEscan; assay type: binding; conditions: read-out: %Ctrl @ 10000nM
T16 construct: purchased DiscoverX KINOMEscan

CAMKK2 = target: T17, CAMKK2 (Homo sapiens, UniProt Q96RR4); test: KINOMEscan; assay type: binding; conditions: read-out: %Ctrl @ 10000nM
T17 construct: purchased DiscoverX KINOMEscan

ARK5 = target: T18, ARK5 (Homo sapiens, UniProt O60285); test: KINOMEscan; assay type: binding; conditions: read-out: %Ctrl @ 10000nM
T18 construct: purchased DiscoverX KINOMEscan

AXL = target: T19, AXL (Homo sapiens, UniProt P30530); test: KINOMEscan; assay type: binding; conditions: read-out: %Ctrl @ 10000nM
T19 construct: purchased DiscoverX KINOMEscan

HIPK4 = target: T20, HIPK4 (Homo sapiens, UniProt Q8NE63); test: KINOMEscan; assay type: binding; conditions: read-out: %Ctrl @ 10000nM
T20 construct: purchased DiscoverX KINOMEscan
T20 sequence (Q8NE63 whole entry): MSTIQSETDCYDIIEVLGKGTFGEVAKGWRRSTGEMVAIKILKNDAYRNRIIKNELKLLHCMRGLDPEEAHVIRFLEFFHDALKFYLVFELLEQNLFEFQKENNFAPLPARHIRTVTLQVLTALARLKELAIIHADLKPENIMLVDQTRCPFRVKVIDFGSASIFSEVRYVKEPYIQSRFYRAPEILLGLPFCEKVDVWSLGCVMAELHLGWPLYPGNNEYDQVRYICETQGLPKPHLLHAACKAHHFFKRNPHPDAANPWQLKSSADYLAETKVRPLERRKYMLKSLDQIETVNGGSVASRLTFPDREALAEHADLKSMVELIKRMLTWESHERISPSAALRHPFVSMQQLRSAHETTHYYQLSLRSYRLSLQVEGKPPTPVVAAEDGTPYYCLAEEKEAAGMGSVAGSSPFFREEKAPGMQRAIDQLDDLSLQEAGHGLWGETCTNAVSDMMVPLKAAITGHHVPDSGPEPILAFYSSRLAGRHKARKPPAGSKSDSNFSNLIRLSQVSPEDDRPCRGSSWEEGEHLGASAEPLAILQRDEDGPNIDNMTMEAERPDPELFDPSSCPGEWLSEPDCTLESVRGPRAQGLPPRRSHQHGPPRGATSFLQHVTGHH

RET(M918T) = target: T21, RET(M918T) (Homo sapiens, UniProt P07949, M918T); test: KINOMEscan; assay type: binding; conditions: read-out: %Ctrl @ 10000nM
T21 construct: purchased DiscoverX KINOMEscan

MEK1 = target: T22, MEK1 (Homo sapiens, UniProt Q02750); test: KINOMEscan; assay type: binding; conditions: read-out: %Ctrl @ 10000nM
T22 construct: purchased DiscoverX KINOMEscan

MST3 = target: T23, MST3 (Homo sapiens, UniProt Q9Y6E0); test: KINOMEscan; assay type: binding; conditions: read-out: %Ctrl @ 10000nM
T23 construct: purchased DiscoverX KINOMEscan
T23 sequence (Q9Y6E0 whole entry): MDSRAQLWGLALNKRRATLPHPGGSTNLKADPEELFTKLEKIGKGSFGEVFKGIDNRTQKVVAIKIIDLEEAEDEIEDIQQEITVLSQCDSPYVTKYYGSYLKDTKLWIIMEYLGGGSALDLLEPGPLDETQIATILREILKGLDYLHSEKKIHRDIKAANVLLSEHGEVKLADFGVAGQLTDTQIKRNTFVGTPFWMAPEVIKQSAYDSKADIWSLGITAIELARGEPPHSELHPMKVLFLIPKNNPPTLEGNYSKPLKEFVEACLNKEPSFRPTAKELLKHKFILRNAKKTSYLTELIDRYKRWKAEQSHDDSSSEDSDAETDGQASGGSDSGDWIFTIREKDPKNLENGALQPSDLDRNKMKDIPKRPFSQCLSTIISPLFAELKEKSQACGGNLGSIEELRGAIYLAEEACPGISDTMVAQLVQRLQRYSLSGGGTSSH

NIK = target: T24, NIK (Homo sapiens, UniProt Q99558); test: KINOMEscan; assay type: binding; conditions: read-out: %Ctrl @ 10000nM
T24 construct: purchased DiscoverX KINOMEscan

[3] = target: T25, ABL1(E255K)-phosphorylated (Homo sapiens, UniProt P00519, E255K); test: KINOMEscan; assay type: binding; conditions: read-out: %Ctrl @ 10000nM
T25 construct: purchased DiscoverX KINOMEscan

BLK = target: T26, BLK (Homo sapiens, UniProt P51451); test: KINOMEscan; assay type: binding; conditions: read-out: %Ctrl @ 10000nM
T26 construct: purchased DiscoverX KINOMEscan

MELK = target: T27, MELK (Homo sapiens, UniProt Q14680); test: KINOMEscan; assay type: binding; conditions: read-out: %Ctrl @ 10000nM
T27 construct: purchased DiscoverX KINOMEscan
T27 sequence (Q14680 whole entry): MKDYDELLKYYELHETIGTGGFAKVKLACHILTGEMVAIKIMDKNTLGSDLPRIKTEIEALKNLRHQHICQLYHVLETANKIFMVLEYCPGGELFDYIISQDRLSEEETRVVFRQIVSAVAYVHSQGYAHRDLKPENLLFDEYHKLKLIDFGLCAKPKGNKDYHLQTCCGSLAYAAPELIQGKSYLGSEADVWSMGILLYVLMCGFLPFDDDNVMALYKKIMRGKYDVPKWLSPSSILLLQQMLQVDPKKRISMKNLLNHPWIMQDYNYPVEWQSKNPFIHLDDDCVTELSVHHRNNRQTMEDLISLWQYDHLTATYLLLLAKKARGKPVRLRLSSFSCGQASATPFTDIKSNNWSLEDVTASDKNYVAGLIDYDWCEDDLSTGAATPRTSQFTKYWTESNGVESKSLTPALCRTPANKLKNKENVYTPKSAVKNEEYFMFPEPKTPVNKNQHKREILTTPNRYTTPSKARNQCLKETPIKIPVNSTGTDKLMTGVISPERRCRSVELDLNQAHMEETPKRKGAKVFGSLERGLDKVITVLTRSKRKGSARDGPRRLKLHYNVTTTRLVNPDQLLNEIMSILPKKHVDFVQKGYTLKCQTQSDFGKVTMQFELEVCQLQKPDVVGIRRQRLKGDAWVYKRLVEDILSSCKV

FYN = target: T28, FYN (Homo sapiens, UniProt P06241); test: KINOMEscan; assay type: binding; conditions: read-out: %Ctrl @ 10000nM
T28 construct: purchased DiscoverX KINOMEscan
T28 sequence (P06241 whole entry): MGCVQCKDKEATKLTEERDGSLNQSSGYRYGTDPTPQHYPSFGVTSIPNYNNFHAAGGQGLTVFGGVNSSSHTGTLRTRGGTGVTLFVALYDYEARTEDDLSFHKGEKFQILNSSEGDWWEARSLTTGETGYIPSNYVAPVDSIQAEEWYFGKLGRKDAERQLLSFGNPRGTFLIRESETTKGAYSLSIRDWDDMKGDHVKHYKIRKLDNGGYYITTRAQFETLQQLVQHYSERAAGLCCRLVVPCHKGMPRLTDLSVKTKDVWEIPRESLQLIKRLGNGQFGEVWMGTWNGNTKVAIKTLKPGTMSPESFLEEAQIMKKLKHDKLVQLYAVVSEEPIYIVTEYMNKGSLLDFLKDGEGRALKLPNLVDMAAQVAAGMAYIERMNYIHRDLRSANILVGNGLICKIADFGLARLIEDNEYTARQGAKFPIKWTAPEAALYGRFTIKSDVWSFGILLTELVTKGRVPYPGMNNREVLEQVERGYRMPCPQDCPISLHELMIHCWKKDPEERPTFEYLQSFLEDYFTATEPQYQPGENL

DRAK2 = target: T29, DRAK2 (Homo sapiens, UniProt O94768); test: KINOMEscan; assay type: binding; conditions: read-out: %Ctrl @ 10000nM
T29 construct: purchased DiscoverX KINOMEscan

EPHB2 = target: T30, EPHB2 (Homo sapiens, UniProt P29323); test: KINOMEscan; assay type: binding; conditions: read-out: %Ctrl @ 10000nM
T30 construct: purchased DiscoverX KINOMEscan

Work on CC(C)c1ccc(CC(=O)N2CCN(c3ccc(C#N)nn3)CC2)cc1 [PZ-2891, 6-(4-(2-(4-isopropylphenyl)acetyl)piperazin-1-yl)pyridazine-3-carbonitrile] yielded a remaining binding at 10 µM (ULK2) of 86%, a remaining binding at 10 µM [1] of 67% and a fraction unbound (Protein binding) of 0.07. For the same compound, the remaining binding at 10 µM (MEK4) was 100%, the remaining binding at 10 µM (MST1R) was 73% and the remaining binding at 10 µM (ERK1) was 91%. The remaining binding at 10 µM (CAMK2G) was 86%, the remaining binding at 10 µM (BIKE) was 100% and the remaining binding at 10 µM (KIT(A829P)) was 91%. It also gave a remaining binding at 10 µM (HIPK2) of 100%, a remaining binding at 10 µM (CIT) of 97% and a remaining binding at 10 µM (NEK2) of 88%. For the same compound, the remaining binding at 10 µM (PIK3CA(H1047L)) was 69%, the “PZ-2891 levels in tissues” value [2] was “presence of drug in liver and brain” and the remaining binding at 10 µM (MYLK2) was 98%. The Papp (PAMPA-BBB) was 52 ×10⁻⁶ cm/s, the remaining binding at 10 µM (VPS34) was 80% and the remaining binding at 10 µM (TNK2) was 98%. The remaining binding at 10 µM (DAPK1) was 63%, the remaining binding at 10 µM (CAMKK2) was 87% and the remaining binding at 10 µM (ARK5) was 94%. It also gave a remaining binding at 10 µM (AXL) of 73%, a remaining binding at 10 µM (HIPK4) of 94% and a remaining binding at 10 µM (RET(M918T)) of 95%. For the same compound, the remaining binding at 10 µM (MEK1) was 76%, the remaining binding at 10 µM (MST3) was 73% and the remaining binding at 10 µM (NIK) was 100%. It also gave a remaining binding at 10 µM [3] of 53%, a remaining binding at 10 µM (BLK) of 87% and a remaining binding at 10 µM (MELK) of 75%. It also gave a remaining binding at 10 µM (FYN) of 87%, a remaining binding at 10 µM (DRAK2) of 95% and a remaining binding at 10 µM (EPHB2) of 82%.
